Experimental data published in US7605121B2, “Oligopeptide lyophilisate, their preparation and use” (AEterna Zentaris GmbH, priority 1993, dated 2009).
Where a SMILES comes first, the peptide text is derived from it. [ ]: non-standard residue; d: D form. dPhe(4-Cl) = N[C@H](Cc1ccc(Cl)cc1)C(=O)O; d2Nal = N[C@H](Cc1ccc2ccccc2c1)C(=O)O; dCit = NC(=O)NCCC[C@@H](N)C(=O)O; d3Pal = N[C@H](Cc1cccnc1)C(=O)O

Tests used:
[1] = Stability of aqueous solution / conventional sterilization; assay type: physicochemical
Description: It should be possible to administer the active substance subcutaneously in a dose of 0.1 to 20 mg. Aqueous solutions of the decapeptide are unstable, and, therefore, autoclaving in the container used to distribute it is not possible. […] To obtain an injectable solution it was therefore necessary to develop a lyophilizate.

[2] = test system: endogenous hormone production (LH-FSH, oestradiol); assay: Suppression of endogenous hormone production in in-vitro fertilization treatment; assay type: in vivo, patients; conditions: treatment over 5 days; female sterility / in-vitro fertilization
Source text: The premature LH peaks cannot arise and the frequency of hyperstimulation syndrome should be reduced. In addition, less HMG is used in the 2nd phase of therapy, the ovulation triggering phase. This gives this in-vitro fertilization treatment a not inconsiderable cost advantage. In-vitro fertilization is, for example, used when a tube anomaly is present. To perform this treatment it is necessary to precisely monitor the cycle and to establish the time of ovulation as precisely as possible. This has hitherto only been achieved to a limited extent since preovulatory LH increase often occurred too early due to simulation with HMG/HCG, or was not maintained for a sufficiently long period. Avoidance of this premature increase is, however, of critical importance for the success of the treatment in order to precisely determine the time of fertilization. This reduces the physical and mental burden on the patient and makes optimum use of hospital logistics. To achieve this objective with great reliability it is necessary to suppress endogenous hormone production (LH-FSH, oestradiol) as completely as possible in order to simultaneously stimulate follicle maturation through administration of exogenous gonadotrophins (HMG/HCG) and to monitor the hormone status at any time. […]

[3] = Dissolution in 30% volume/volume acetic acid; assay type: physicochemical
Description: (§1) The solution is then diluted to a final concentration of 3% peptide, e.g., cetrorelix, with water for injection purposes and mannitol is added. Although it is stated in the literature that the terminal amide group hydrolyzes easily in acid medium, this was not found in the case of cetrorelix. Solutions prepared according to this method caused no difficulties during filtration. The correct amounts of active substance were always found.

[4] = Hydrolysis of terminal amide group in acid medium; assay type: physicochemical; conditions: acid medium (acetic acid solution)
Description: as §1

CC(=O)N[C@H](Cc1ccc2ccccc2c1)C(=O)N[C@H](Cc1ccc(Cl)cc1)C(=O)N[C@H](Cc1cccnc1)C(=O)N[C@@H](CO)C(=O)N[C@@H](Cc1ccc(O)cc1)C(=O)N[C@H](CCCNC(N)=O)C(=O)N[C@@H](CC(C)C)C(=O)N[C@@H](CCCNC(=N)N)C(=O)N1CCC[C@H]1C(=O)N[C@H](C)C(N)=O [Cetrorelix] (Ac-[d2Nal][dPhe(4-Cl)][d3Pal]SY[dCit]LRP[dA]-NH2)
Stability of aqueous solutions ([1]; aqueous solution, autoclaving in the container not possible): unstable
Behaviour during conventional sterilization ([1]; conventional sterilization, prescribed conditions): tends to decompose
Suppression achieved [2]: total suppression
Solubility in acetic acid [3]: easily dissolved
Hydrolysis of terminal amide group [4]: not found
